B1: L-lysine α-oxidase (Trichoderma viride) (protein)
chain: RAEEELPPRKVCIVGAGVSGLYIAMILDDLKIPNLTYDIFESSSRTGGRLYTHHFTDAKHDYYDIGAMRYPDIPSMKRTFNLFKRTGMPLIKYYLDGENTPQLYNNHFFAKGVVDPYMVSVANGGTVPDDVVDSVGEKLQQAFGYYKEKLAEDFDKGFDELMLVDDMTTREYLKRGGPKGEAPKYDFFAIQWMETQNTGTNLFDQAFSESVIDSFDFDNPTKPEWYCIEGGTSLLVDAMKETLVHKVQNNKRVEAISIDLDAPDDGNMSVKIGGKDYSGYSTVFNTTALGCLDRMDLRGLNLHPTQADAIRCLHYDNSTKVALKFSYPWWIKDCGITCGGAASTDLPLRTCVYPSYNLGDTGEAVLLASYTWSQDATRIGSLVKDAPPQPPKEDELVELILQNLARLHAEHMTYEKIKEAYTGVYHAYCWANDPNVGGAFALFGPGQFSNLYPYLMRPAAGGKFHIVGEASSVHHAWIIGSLESAYTAVYQFLYKYKMWDYLRLLLERWQYGLQELETGKHGTAHLQFILGSLPKEYQVKI
notes: mature processed form

Target: T1, L-lysine α-oxidase (Trichoderma viride, UniProt A0A0G4DCU0)
T1 construct: mature processed form
T1 sequence (A0A0G4DCU0 77-617): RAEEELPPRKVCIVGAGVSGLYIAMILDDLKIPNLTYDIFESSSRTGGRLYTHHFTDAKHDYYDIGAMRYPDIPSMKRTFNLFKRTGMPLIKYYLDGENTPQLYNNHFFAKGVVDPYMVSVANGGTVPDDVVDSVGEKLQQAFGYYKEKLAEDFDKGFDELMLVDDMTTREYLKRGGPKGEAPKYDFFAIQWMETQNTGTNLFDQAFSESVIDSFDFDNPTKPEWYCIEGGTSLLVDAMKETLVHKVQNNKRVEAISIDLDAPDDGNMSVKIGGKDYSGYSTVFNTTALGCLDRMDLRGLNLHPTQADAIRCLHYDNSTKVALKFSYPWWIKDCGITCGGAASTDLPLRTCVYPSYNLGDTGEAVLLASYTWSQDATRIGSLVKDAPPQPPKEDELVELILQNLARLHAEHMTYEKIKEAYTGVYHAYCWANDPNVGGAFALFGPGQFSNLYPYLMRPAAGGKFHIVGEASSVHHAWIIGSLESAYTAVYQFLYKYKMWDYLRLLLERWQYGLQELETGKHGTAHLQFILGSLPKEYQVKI
Test: Substrate specificity, relative enzyme activity by oxygen-electrode method
Type: biochemical
Settings: purified enzyme
Method: A variety of substrates listed in the following table were subjected to the action of the purified enzyme of the present invention, and the relative enzyme activities thereof were determined according to the oxygen-electrode method.
The activity of the present enzyme was measured in accordance with Soda's method (Analytical Biochemistry Vol. 25, p. 228, 1968) in the following manner. A reaction mixture consisting of 0.7 ml of 0.1 M potassium phosphate buffer (pH 8.0), 0.1 ml of catalase (750 U/ml), 0.1 ml of 0.1 M L-lysine solution and 0.1 ml of the present enzyme solution was incubated at 37° C. for 20 minutes with gentle shaking. After the incubation the reaction was terminated by the addition of 0.1 ml of 25% trichloroacetic acid. To the resulting reaction mixture were added 1.9 ml of 1 M acetate buffer (pH 5.0) and 0.8 ml of 0.1% 3-methyl-2-benzothiazolone hydrazone hydrochloride solution. The mixture was further incubated at 30° C. for 30 minutes and then allowed to cool to room temperature, after which measurement of optical density at 318 nm was carried out. The formed α-keto-ε -aminocaproic acid thus formed was determined from the resulting calibration curve. One unit of the enzyme was defined as the quantity of the enzyme catalyzing the formation of 1 μmol of α-keto-ε-aminocaproic acid at 37° C. per minute. The relative activity of the enzyme was also assayed by manometric and polarographic determination of the oxygen consumption.

Row | Molecule | Activity of the enzyme to the amino acid (in words)
1 | N[C@@H](Cc1c[nH]cn1)C(=O)O [L-Histidine] | some activities
2 | N=C(N)NCCC[C@H](N)C(=O)O [L-Arginine] | some activities
3 | NCCC[C@H](N)C(=O)O [L-Ornithine] | some activities
4 | N[C@@H](Cc1ccccc1)C(=O)O [L-Phenylalanine] | some activities

Same assay, conditions: substrate 10 mM, purified enzyme, L-Lysine = 100

Row | Molecule | Relative activity (%)
5 | NCCCCN [Putrescine] | < 0.5
6 | NCCCCCC(=O)O [ε-Aminocaproic acid] | < 0.5
7 | N[C@@H](CSCCc1ccncc1)C(=O)O [S-(β-4-Pyridylethyl)-L-cysteine] | 2.7
8 | N[C@@H](CCC(=O)O)C(=O)O [L-Glutamic acid] | < 0.5
9 | CSCC[C@H](N)C(=O)O [L-Methionine] | < 0.5
10 | CC(=O)NCCCC[C@H](N)C(=O)O [ε-N-Acetyl-L-lysine] | < 0.5
11 | N[C@@H](CC(=O)O)C(=O)O [L-Aspartic acid] | < 0.5
12 | NCC(=O)O [L-Glycine] | < 0.5
13 | NCCCCC(=O)O [δ-Aminovareric acid] | < 0.5
14 | CC(C)C[C@H](N)C(=O)O [L-Leucine] | < 0.5
15 | NCC(N)C(=O)O (stereo not drawn) [α,β-Diaminopropionic acid] | < 0.5
16 | C[C@H](N)C(=O)O [L-Alanine] | < 0.5
17 | C[C@@H](O)[C@H](N)C(=O)O [L-Threonine] | < 0.5
18 | NC(=O)NCCCC[C@H](N)C(=O)O [Homocitrulline] | < 0.5
19 | NCCCCCC(N)C(=O)O (racemic) [D,L-Homolysine] | 31.1
20 | N[C@@H](CS)C(=O)O [L-Cysteine] | < 0.5
21 | N[C@@H](Cc1c[nH]cn1)C(=O)O [L-Histidine] | 3.8
22 | NCCC(N)C(=O)O (centres unmarked) [2,4-Diaminobutyric acid] | < 0.5
23 | N[C@@H](CO)C(=O)O [L-Serine] | < 0.5

Row | Molecule | Relative activity (%)
24 | N=C(N)NCCC[C@H](N)C(=O)O [L-Arginine] | 6.1
25 | NCCCC[C@H](N)C(=O)O [L-Lysine] | 100.0
26 | NCCSC[C@H](N)C(=O)O [S-(β-Aminoethyl)-L-cysteine] | 9.8
27 | NC(=O)CC[C@H](N)C(=O)O [L-Glutamine] | < 0.5
28 | NC(=O)NCCC[C@H](N)C(=O)O [L-Citrulline] | < 0.5
29 | NC(=O)C[C@H](N)C(=O)O [L-Asparagine] | < 0.5
30 | O=C(O)[C@@H]1C[C@@H](O)CN1 [L-Hydroxyproline] | < 0.5
31 | CC[C@H](C)[C@H](N)C(=O)O [L-Isoleucine] | < 0.5
32 | NCCCC[C@H](N)C(=O)NO [L-Lysine hydroxamate] | 62.1
33 | NCCC[C@H](N)C(=O)O [L-Ornithine] | 18.2
34 | NCCCCCN [Cadaverine] | < 0.5
35 | NCCCC[C@@H](N)C(=O)O [D-Lysine] | < 0.5
36 | CCOC(=O)[C@@H](N)CCCCN [L-Lysine ethyl ester] | 83.3
37 | N[C@@H](Cc1c[nH]c2ccccc12)C(=O)O [L-Tryptophan] | < 0.5
38 | CC(C)[C@H](N)C(=O)O [L-Valine] | < 0.5
39 | CC(N)CSC[C@H](N)C(=O)O (stereo partly drawn) [S-(β-Aminopropyl-L-cysteine] | 34.8
40 | NCC(O)CC[C@H](N)C(=O)O (some centres unmarked) [δ-Hydroxy-lysine] | 37.1
41 | O=C(O)[C@@H]1CCCN1 [L-Proline] | < 0.5
42 | N[C@@H](Cc1ccccc1)C(=O)O [L-Phenylalanine] | 8.3

Target: T1, L-lysine α-oxidase
Test: Enzyme activity in the presence of metallic ions and additives (inhibition, activation, stabilization)
Type: biochemical
Settings: not given
Method: The enzyme activity was measured in the presence of various metallic ions and various additives. The activator has not been found. The enzyme was stabilized by sodium chloride, potassium chloride, phosphates and the like.

Row | Molecule | Stabilization of the enzyme (in words) | Relative activity (%) in presence of inhibitors [%]
43 | phosphates | stabilized | –
44 | [Cl-].[K+] [potassium chloride] | stabilized | –
45 | N[C@@H](CCC(=O)N[C@@H](CS)C(=O)NCC(=O)O)C(=O)O [Glutathione] | – | 103.5
46 | [Cl-].[Na+] [sodium chloride] | stabilized | –
47 | O=C(O)CN(CCN(CC(=O)O)CC(=O)O)CC(=O)O [EDTA, Ethylenediaminetetraacetic acid] | – | 93.8

Same assay, conditions: enzyme activity measured in presence of the additive

Row | Molecule | Effect on enzyme activity (in words)
48 | [Cl][Hg][Cl] [Mercuric chloride] | inhibited
49 | O=C(O)c1cc[c]([Hg][Cl])cc1 [PCMB, para-Chloromercuribenzoic acid] | inhibited
50 | [Cu+2] [Cu] | inhibited

Same assay, conditions: inhibitor concentration not given

Row | Molecule | Relative activity (%) in presence of inhibitors [%]
51 | [Cl][Hg][Cl] [Mercuric chloride] | 19.2
52 | N[C@@H](CS)C(=O)O [Cysteine] | 100.3
53 | CCN1C(=O)C=CC1=O [N-Ethylmaleimide] | 108.7
54 | O=C(O)c1cc[c]([Hg][Cl])cc1 [PCMB, para-Chloromercuribenzoic acid] | 42.9
55 | O=S(=O)(O)c1cc(O)c(O)c(S(=O)(=O)O)c1 [Tiron] | 96.5

Same assay, conditions: metallic ions 1mM

Row | Molecule | Relative activity (%) in presence of metallic ions [%]
56 | [Co+2] [Co] | 91.6
57 | [Mn+2] [Mn] | 97.1
58 | [Ba+2] [Ba] | 100.0
59 | [Ca+2] [Ca] | 102.5
60 | [Zn+2] [Zn] | 92.7
61 | [K+] [K] | 100.0
62 | [Li+] [Li] | 98.4
63 | [Cu+2] [Cu] | 78.5
64 | [Mg+2] [Mg] | 99.6

Tested on: L5178 Y mouse leukemic cells
Test: not given
Settings: L5178Y cells, 10^5 cells/ml, 37° C., 48 hours
Method: In this experiment, the antitumor activity in vitro was determined by measuring the proliferation-inhibition activity against the cultured L5178 Y mouse leukemic cells. More specifically, 0.1 ml of the sample diluted with a phosphate-buffered saline (PBS) was added to 0.9 ml of the cultured L5178Y cell suspension (10^5 cells/ml) with the logarithmic growth phase. The mixture was incubated, at 37° C. for 48 hours in a carbon dioxide incubator, and then the number of the cells was measured by means of a microcell counter.

Row | Molecule | Concentration giving complete inhibition of proliferation [mU/ml]
65 | L-lysine α-oxidase | 3.3

Substrate: NCCC[C@H](N)C(=O)O
Test: purified protein, by the assay type
Settings: other: purified enzyme of Example 1

Row | Molecule | Km [µM]
66 | B1 | 440

Substrate: NCCCC[C@H](N)C(=O)O
Test: Km values of the enzyme for amino acids
Type: biochemical, Trichoderma viride
Settings: other: purified enzyme of Example 1

Row | Molecule | Km [µM]
67 | B1 | 40

Substrate: N[C@@H](Cc1ccccc1)C(=O)O
Test: Km values of the enzyme for amino acids
Type: biochemical, Trichoderma viride
Settings: other: purified enzyme of Example 1

Row | Molecule | Km [µM]
68 | B1 | 14000
